According to patent EP0882015B1, “DIPHENYL STILBENES AS PRODRUGS TO COX-2 INHIBITORS” (Merck Frosst Canada & Co., priority 1996, dated 1997):

Experiment: Rat plasma levels, per os pharmacokinetics in rats (conversion of prodrug to active COX-2 inhibitor)
Format: in vivo, Male Sprague Dawley rats
Settings: maximum plasma concentration of the corresponding lactone (active COX-2 inhibitor) observed in rats dosed at 20 mg/kg orally with the indicated prodrug
From the text: The animals are housed, fed and cared for according to the Guidelines of the Canadian Council on Animal Care.
Male Sprague Dawley rats (325-375 g) are fasted overnight prior to each PO blood level study.
The rats are placed in the restrainer one at a time and the box is firmly secured. The zero blood sample is obtained by nicking a small (1 mm or less) piece off the tip of the tail. The tail is then stroked with a firm but gentle motion from the top to the bottom to milk out the blood. Approximately 1 mL of blood is collected into a heparinized vacutainer tube.
Compounds are prepared as required, in a standard dosing volume of 10mL/kg, and administered orally by passing a 16 gauge, 3" gavaging needle into the stomach.
Subsequent bleeds are taken in the same manner as the zero bleed except that there is no need to nick the tail again. The tail is cleaned with a piece of gauze and milked/stroked as described above into the appropriately labelled tubes.
Immediately after sampling, blood is centrifuged, separated, put into clearly marked vials and stored in a freezer until analysed. […]
For analysis, aliquots are diluted with an equal volume of acetonitrile and centrifuged to remove protein precipitate. […] Quantitation is done relative to a clean blood sample spiked with a known quantity of drug. […]

Plasma Levels: 1.0 µM
SMILES: COC(=O)/C(=C(\C)c1ccc(S(C)(=O)=O)cc1)c1ccccc1 [Example 1, (E)-3-(4-Methylsulfonyl)phenyl-2-phenylbut-2-enoic acid methyl ester]
